According to patent US20100298371A1, “PROCESS FOR PREPARING CHEMICALLY AND CHIRALLY PURE SOLIFENACIN BASE AND ITS SALTS” (priority 2007, published 2010):
Where a name gives a salt, the structure may show the parent alone. Read-outs that look alike come from different tables or passages of the source.

How the values were obtained:
[1] = Stability study on storage (40° C. ± 2° C./75% ± 5% RH); format: physicochemical
Protocol: The complete x-ray powder spectrum, was recorded with a Rigaku D/Max 2200 VPC X-ray powder diffractometer model using copper radiation. The X-ray diffraction pattern was recorded by keeping the instrument parameters as below: • X-ray: Cu/40 kv/30 mA, Diverging slit: 1°, Scattering slit: 1°, Receiving slit: 0.15 mm, Monochromator RS: 0.8 mm, Counter: Scintillation counter,
Solifenacin base and its salts were analyzed for purity by analytical HPLC at λ^max 220 nm using column J'sphere-ODS, 150 mm×4.6 mm×4μ or its equivalent on AGILENT 1100 series under the following conditions, • Detector: UV absorption photometer Wave length: 220 nm Column temp.: 30° C. • Flow rate: 1.0 mL/min. Injection Vol.: 5 μL • Mobile Phase (gradient elution): 0.05 TFA buffer in water:Acetonitrile
Several of the Solifenacin salts prepared according to the present invention has chemical and polymorphic stability on storage.

[2] = Intrinsic dissolution rate of various salts of Solifenacin; format: physicochemical
[3] = Pharmacokinetic profile of Solifenacin salts in fasted male Wistar rats; format: in vivo; settings: for absorption / rate of absorption: compared to the succinate salt
[4] = After 3 Month at 40° C. ± 2° C./75% ± 5% RH
[5] = Table 3a, fasted male Wistar rats, dose 30 mg/kg, mean
[6] = Table 3b, fasted male Wistar rats, dose 30 mg/kg, mean
[7] = Table 3b, fasted male Wistar rats, dose 30 mg/kg, mean, hydrochloride salt
[8] = fasted male Wistar rats, ratio to succinate
[9] = Table 3b, fasted male Wistar rats, dose 30 mg/kg, mean, succinate salt

Compound	Description [1, 4]	Polymorphism XRD [1, 4]	Purity (By HPLC) [1, 4] [%]	Water (by KFR) [1, 4] [%]	Description ([1]; Initial)	Polymorphism XRD ([1]; Initial)	Purity (By HPLC) ([1]; Initial) [%]	Water (by KFR) ([1]; Initial) [%]	AUC (0-inf) [3, 6] [ng·h/mL]	AUC (0-t) [3, 6] [ng·h/mL]	Cmax [3, 6] [ng/mL]	Tmax [3, 6] [h]	Kel [3, 6] [h⁻¹]	T1/2 [3, 6] [h]	also measured
O=C(O)c1cc(O)ccc1O.O=C(O[C@H]1CN2CCC1CC2)N1CCc2ccccc2[C@@H]1c1ccccc1 [Solifenacin Gentisate, (+)-(1S,3′R)-quinuclidin-3′-yl 1-phenyl-1,2,3,4-tetrahydro-isoquinoline-2-carboxylate gentisate salt]	Off white colored	No Change	99.46	0.29	Off white colored powder	Crystalline pattern	99.63	0.16	74.19	58.97	30.66	1.70			Intrinsic dissolution rate ([2]; pH 1.2 HCl): 6.845 mg/min · cm^2; Intrinsic dissolution rate ([2]; pH 4.5 Acetate Buffer): 0.2356 mg/min · cm^2; Intrinsic dissolution rate ([2]; pH 6.8 Phosphate Buffer): 0.4932 mg/min · cm^2; AUC (0-inf) [3, 5]: 74.19 ng·h/mL; AUC (0-t) [3, 5]: 58.97 ng·h/mL; Cmax [3, 5]: 30.66 ng/mL; Tmax [3, 5]: 1.70 h; peak plasma concentrations compared with Solifenacin succinate ([3]; in words): comparable
O=C(O[C@H]1CN2CCC1CC2)N1CCc2ccccc2[C@@H]1c1ccccc1 [Solifenacin Hydrobromide, Solifenacin hydrobromide]															Tmax ([3]; Table 3b, fasted male Wistar rats, dose 30 mg/kg, mean, hydrobromide): 1.27 h; AUC (0-inf) ([3]; male, Wistar, rat, plasma, 30 mg/kg, Table 3b, fasted male Wistar rats, dose 30 mg/kg, mean, read-out: AUC (0-inf)): 74 ng·h/mL; AUC (0-t) ([3]; male, Wistar, rat, plasma, 30 mg/kg, Table 3b, fasted male Wistar rats, dose 30 mg/kg, mean, read-out: AUC (0-t)): 59.9 ng·h/mL; Cmax ([3]; male, Wistar, rat, plasma, 30 mg/kg, Table 3b, fasted male Wistar rats, dose 30 mg/kg, mean, read-out: Cmax): 14.1 ng/mL
Solifenacin phosphate									57.63	50.58	12.63	1.00	0.29	2.43	
O=C(O[C@H]1CN2CCC1CC2)N1CCc2ccccc2[C@@H]1c1ccccc1.O=C1O[C@H]([C@@H](O)CO)C(O)=C1O [Solifenacin Ascorbate]									96.99	85.66	29.04	1.30			absorption / rate of absorption ([3]; in words): faster; better absorption than the succinate salt ([3]; relative to succinate): 20%
O=C(O[C@H]1CN2CCC1CC2)N1CCc2ccccc2[C@@H]1c1ccccc1 [Solifenacin Hydrochloride, (+)-(1S,3′R)-quinuclidin-3′-yl 1-phenyl-1,2,3,4-tetrahydro-isoquinoline-2-carboxylate hydrochloride salt]	Off white colored	No Change	99.6	0.32	Off white colored powder	Crystalline pattern	99.54	0.14							Intrinsic dissolution rate ([2]; pH 1.2 HCl, listed as HCl, hydrochloride salt): 6.6836 mg/min · cm^2; Intrinsic dissolution rate ([2]; pH 4.5 Acetate Buffer, listed as HCl, hydrochloride salt): 21.08 mg/min · cm^2; Intrinsic dissolution rate ([2]; pH 6.8 Phosphate Buffer, listed as HCl, hydrochloride salt): 20.262 mg/min · cm^2; AUC (0-inf) [3, 7]: 59.52 ng·h/mL; AUC (0-t) [3, 7]: 50.54 ng·h/mL; Cmax [3, 7]: 13.67 ng/mL; Tmax [3, 7]: 1.05 h; AUC (0-inf) ([3]; male, Wistar, rat, plasma, 30 mg/kg, Table 3a, fasted male Wistar rats, dose 30 mg/kg, mean, read-out: AUC (0-inf)): 158 ng·h/mL; AUC (0-t) ([3]; male, Wistar, rat, plasma, 30 mg/kg, Table 3a, fasted male Wistar rats, dose 30 mg/kg, mean, read-out: AUC (0-t)): 147 ng·h/mL; Cmax ([3]; male, Wistar, rat, plasma, 30 mg/kg, Table 3a, fasted male Wistar rats, dose 30 mg/kg, mean, read-out: Cmax): 94.4 ng/mL; Tmax ([3]; male, Wistar, rat, plasma, 30 mg/kg, Table 3a, fasted male Wistar rats, dose 30 mg/kg, mean, read-out: Tmax): 0.6 h; Vd ([3]; rat, plasma, Table 3a, fasted male Wistar rats, dose 30 mg/kg, mean, read-out: Vz): 1530 L
(+)-(1S,3′R)-quinuclidin-3′-yl 1-phenyl-1,2,3,4-tetrahydro-isoquinoline-2-carboxylate oxalate salt [Solifenacin Oxalate]	Off white colored	No Change	99.36	0.33	Off white colored powder	Crystalline pattern	99.49	0.18	78.78	49.77	9.10	1.62	0.18	6.19	Intrinsic dissolution rate ([2]; pH 1.2 HCl): 6.5822 mg/min · cm^2; Intrinsic dissolution rate ([2]; pH 4.5 Acetate Buffer): 6.5084 mg/min · cm^2; Intrinsic dissolution rate ([2]; pH 6.8 Phosphate Buffer): 4.9096 mg/min · cm^2; AUC (0-inf) [3, 5]: 345.79 ng·h/mL; AUC (0-t) [3, 5]: 321.28 ng·h/mL; Cmax [3, 5]: 252.38 ng/mL; Kel [3, 5]: 0.26 h⁻¹; T1/2 [3, 5]: 4.76 h; Tmax [3, 5]: 0.37 h; higher plasma concentration (Bio available, Cmax) compared to Solifenacin succinate salt [3, 8]: ~10 fold; higher plasma exposure compared to Solifenacin succinate salt [3, 8]: 5 times; T1/2 value compared to the succinate salt ([3]; in words): higher; absorption / rate of absorption ([3]; in words): rapid absorption
O=C(O[C@H]1CN2CCC1CC2)N1CCc2ccccc2[C@@H]1c1ccccc1 [Solifenacin Succinate, (+)-(1S,3′R)-quinuclidin-3′-yl 1-phenyl-1,2,3,4-tetrahydro-isoquinoline-2-carboxylate succinate salt, reference compound]															Intrinsic dissolution rate ([2]; pH 1.2 HCl, succinate salt): 10.666 mg/min · cm^2; Intrinsic dissolution rate ([2]; pH 4.5 Acetate Buffer, succinate salt): 9.845 mg/min · cm^2; Intrinsic dissolution rate ([2]; pH 6.8 Phosphate Buffer, succinate salt): 11.002 mg/min · cm^2; AUC (0-inf) [3, 9]: 76.69 ng·h/mL; AUC (0-t) [3, 9]: 60.09 ng·h/mL; Cmax [3, 9]: 23.72 ng/mL; Tmax [3, 9]: 2.67 h; Tmax (absorption, as stated in text) ([3]; text summary of Table 3b, fasted male Wistar rats, succinate salt): 6.67 h
(+)-(1S,3′R)-quinuclidin-3′-yl 1-phenyl-1,2,3,4-tetrahydro-isoquinoline-2-carboxylate besylate salt [Solifenacin Besylate]									49.27	45.54	12.84	1.73	0.36	1.95	
